“And” between values parts separate entries of the source, which are not always exact repeats. Identical values can stand only once. ± gives the expanded uncertainty stated by the source.
Assay: Henry's Law constant (molality scale); of the first substance listed, at infinite dilution; xn = mol fraction of the nth substance listed
Conditions: Liquid, Chromatography, x1 = 0

CC(Cl)(Cl)Cl [1,1,1-trichloroethane] + O
Henry's Law constant (274.15 K): 484 ± 150 kPa·kg/mol | Henry's Law constant (294.65 K): 1410 kPa·kg/mol and 1210 kPa·kg/mol | Henry's Law constant (296.15 K): 1430 ± 430 kPa·kg/mol | Henry's Law constant (313.15 K): 2680 ± 800 kPa·kg/mol | Henry's Law constant (326.15 K): 4510 ± 1400 kPa·kg/mol

ClC(Cl)C(Cl)Cl [1,1,2,2-tetrachloroethane] + O
Henry's Law constant (274.15 K): 3.6 ± 1.1 kPa·kg/mol | Henry's Law constant (294.65 K): 31.2 kPa·kg/mol and 17.9 kPa·kg/mol | Henry's Law constant (296.15 K): 34.4 ± 10 kPa·kg/mol | Henry's Law constant (310.15 K): 99 ± 30 kPa·kg/mol | Henry's Law constant (320.15 K): 156 ± 47 kPa·kg/mol | Henry's Law constant (331.15 K): 262 ± 79 kPa·kg/mol

ClC(Cl)=C(Cl)C(Cl)=C(Cl)Cl [1,1,2,3,4,4-hexachloro-1,3-butadiene] + O
Henry's Law constant (274.15 K): 145 kPa·kg/mol | Henry's Law constant (296.15 K): 287 kPa·kg/mol | Henry's Law constant (310.15 K): 366 kPa·kg/mol | Henry's Law constant (313.15 K): 2180 kPa·kg/mol | Henry's Law constant (326.15 K): 3830 kPa·kg/mol

FC(F)(Cl)C(F)(Cl)Cl [1,1,2-trichloro-1,2,2-trifluoroethane] + O
Henry's Law constant (274.15 K): 1070 ± 320 kPa·kg/mol | Henry's Law constant (313.15 K): 16800 ± 5000 kPa·kg/mol | Henry's Law constant (326.15 K): 20100 ± 6000 kPa·kg/mol

CC=C(Cl)Cl [1,1-dichloro-1-propene] + O
Henry's Law constant (274.15 K): 556 ± 170 kPa·kg/mol | Henry's Law constant (294.65 K): 1480 kPa·kg/mol and 1360 kPa·kg/mol | Henry's Law constant (296.15 K): 1460 ± 440 kPa·kg/mol | Henry's Law constant (313.15 K): 3190 ± 960 kPa·kg/mol | Henry's Law constant (326.15 K): 5570 ± 1700 kPa·kg/mol

CC(Cl)Cl [1,1-dichloroethane] + O
Henry's Law constant (274.15 K): 188 ± 56 kPa·kg/mol | Henry's Law constant (313.15 K): 953 ± 290 kPa·kg/mol | Henry's Law constant (326.15 K): 1560 ± 470 kPa·kg/mol

C=C(Cl)Cl [1,1-dichloroethene] + O
Henry's Law constant (274.15 K): 787 ± 240 kPa·kg/mol | Henry's Law constant (313.15 K): 4460 ± 1300 kPa·kg/mol | Henry's Law constant (326.15 K): 10500 ± 3200 kPa·kg/mol

Clc1cccc(Cl)c1Cl [1,2,3-trichlorobenzene] + O
Henry's Law constant (274.15 K): 17.8 ± 5.3 kPa·kg/mol | Henry's Law constant (294.65 K): 56.4 kPa·kg/mol and 54.8 kPa·kg/mol | Henry's Law constant (296.15 K): 63 ± 19 kPa·kg/mol | Henry's Law constant (310.15 K): 124 ± 37 kPa·kg/mol | Henry's Law constant (320.15 K): 199 ± 60 kPa·kg/mol | Henry's Law constant (331.15 K): 324 ± 97 kPa·kg/mol

ClCC(Cl)CCl [1,2,3-trichloropropane] + O
Henry's Law constant (274.15 K): 2.98 ± 0.89 kPa·kg/mol | Henry's Law constant (294.65 K): 23 kPa·kg/mol and 13.6 kPa·kg/mol | Henry's Law constant (296.15 K): 28.3 ± 8.5 kPa·kg/mol | Henry's Law constant (310.15 K): 78.2 ± 23 kPa·kg/mol | Henry's Law constant (320.15 K): 113 ± 34 kPa·kg/mol | Henry's Law constant (331.15 K): 208 ± 62 kPa·kg/mol | Henry's Law constant (333.15 K): 370 ± 110 kPa·kg/mol

ClCC(Br)CBr (stereo not drawn) [1,2-dibromo-3-chloropropane] + O
Henry's Law constant (274.15 K): 1.28 ± 0.38 kPa·kg/mol | Henry's Law constant (294.65 K): 7.76 kPa·kg/mol and 9.37 kPa·kg/mol | Henry's Law constant (296.15 K): 11.8 ± 3.5 kPa·kg/mol | Henry's Law constant (310.15 K): 28.1 ± 8.4 kPa·kg/mol | Henry's Law constant (320.15 K): 49.7 ± 15 kPa·kg/mol | Henry's Law constant (331.15 K): 101 ± 30 kPa·kg/mol | Henry's Law constant (333.15 K): 133 ± 40 kPa·kg/mol

Clc1ccccc1Cl [1,2-dichlorobenzene] + O
Henry's Law constant (274.15 K): 41.1 ± 12 kPa·kg/mol | Henry's Law constant (294.65 K): 102 kPa·kg/mol and 115 kPa·kg/mol | Henry's Law constant (296.15 K): 119 ± 36 kPa·kg/mol | Henry's Law constant (310.15 K): 208 ± 62 kPa·kg/mol | Henry's Law constant (320.15 K): 350 ± 100 kPa·kg/mol | Henry's Law constant (331.15 K): 510 ± 150 kPa·kg/mol

ClCCCl [1,2-dichloroethane] + O
Henry's Law constant (274.15 K): 42.9 ± 13 kPa·kg/mol | Henry's Law constant (294.65 K): 98.2 kPa·kg/mol and 102 kPa·kg/mol | Henry's Law constant (296.15 K): 105 ± 32 kPa·kg/mol | Henry's Law constant (310.15 K): 211 ± 63 kPa·kg/mol | Henry's Law constant (320.15 K): 389 ± 120 kPa·kg/mol | Henry's Law constant (331.15 K): 517 ± 160 kPa·kg/mol

CC(Cl)CCl (stereo not drawn) [1,2-dichloropropane] + O
Henry's Law constant (274.15 K): 70.7 ± 21 kPa·kg/mol | Henry's Law constant (294.65 K): 217 kPa·kg/mol and 198 kPa·kg/mol | Henry's Law constant (296.15 K): 225 ± 67 kPa·kg/mol | Henry's Law constant (310.15 K): 418 ± 130 kPa·kg/mol | Henry's Law constant (326.15 K): 699 ± 210 kPa·kg/mol | Henry's Law constant (331.15 K): 1210 ± 360 kPa·kg/mol

Cc1cc(C)cc(C)c1 [1,3,5-trimethylbenzene] + O
Henry's Law constant (274.15 K): 115 ± 46 kPa·kg/mol | Henry's Law constant (294.65 K): 304 kPa·kg/mol and 352 kPa·kg/mol | Henry's Law constant (296.15 K): 408 ± 160 kPa·kg/mol | Henry's Law constant (310.15 K): 719 ± 290 kPa·kg/mol | Henry's Law constant (313.15 K): 1330 ± 530 kPa·kg/mol | Henry's Law constant (326.15 K): 2360 ± 940 kPa·kg/mol | Henry's Law constant (331.15 K): 1830 ± 730 kPa·kg/mol

C1COCCO1 [1,4-dioxane] + O
Henry's Law constant (274.15 K): 0.0629 ± 0.019 kPa·kg/mol | Henry's Law constant (294.65 K): 0.482 kPa·kg/mol and 0.35 kPa·kg/mol | Henry's Law constant (296.15 K): 0.419 ± 0.13 kPa·kg/mol | Henry's Law constant (310.15 K): 0.84 ± 0.25 kPa·kg/mol | Henry's Law constant (320.15 K): 2 ± 0.6 kPa·kg/mol | Henry's Law constant (331.15 K): 3.92 ± 1.2 kPa·kg/mol

Cc1ccc(C(C)C)cc1 [1-(1-methylethyl)-4-methylbenzene] + O
Henry's Law constant (274.15 K): 157 ± 63 kPa·kg/mol | Henry's Law constant (294.65 K): 389 kPa·kg/mol and 469 kPa·kg/mol | Henry's Law constant (296.15 K): 502 ± 200 kPa·kg/mol | Henry's Law constant (310.15 K): 777 ± 310 kPa·kg/mol | Henry's Law constant (313.15 K): 2150 ± 860 kPa·kg/mol | Henry's Law constant (326.15 K): 3440 ± 1400 kPa·kg/mol | Henry's Law constant (331.15 K): 1830 ± 730 kPa·kg/mol
